In US20240018136A1, “CDK Inhibitors And Their Use As Pharmaceuticals” (Prelude Therapeutics, Incorporated, priority 2022, published 2024):

Columns and labels:
CDK2/Cyclin E2 = CDK2/Cyclin E2 (Homo sapiens, UniProt P24941); test: CDK2/CyclinE2 enzymatic activity assay (TR-FRET); type: biochemical; settings: ATP 1 mM final, read-out: CDK2_E1 IC50
In short: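 Insect-cell-expressed CDK2/Cyclin E2 (1 nM), ULight-4E-BP1 (50 nM) and ATP (1 mM) in HEPES pH 7.4 buffer were preincubated 20 min at RT with compound (9-dose, 3-fold), started with 10 mM MgCl2 and run 45 min at 37 °C. EDTA/Eu-anti-P-4E-BP1 stop, 60 min TR-FRET detection; IC50 from 4-parameter Hill fit.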

CDK4/Cyclin D1 = biological target: T1, CDK4/Cyclin D1 (Homo sapiens, UniProt P11802); test: CDK4/CyclinD1 enzymatic activity assay (TR-FRET); type: biochemical; settings: ATP 2 mM final, read-out: CDK4_D1 IC50
T1 construct: purchased ProQinase; host or cells: insect cell
T1 sequence (P11802 whole entry): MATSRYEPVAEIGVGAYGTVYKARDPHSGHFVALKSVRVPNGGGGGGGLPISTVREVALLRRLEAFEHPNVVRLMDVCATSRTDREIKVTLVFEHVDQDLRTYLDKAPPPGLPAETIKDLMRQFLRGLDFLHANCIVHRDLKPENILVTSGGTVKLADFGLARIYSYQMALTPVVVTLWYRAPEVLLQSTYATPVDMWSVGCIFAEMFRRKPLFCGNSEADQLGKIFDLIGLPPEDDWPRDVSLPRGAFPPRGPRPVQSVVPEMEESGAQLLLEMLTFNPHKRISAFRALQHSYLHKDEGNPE
T1 sequence (P24385 whole entry partner): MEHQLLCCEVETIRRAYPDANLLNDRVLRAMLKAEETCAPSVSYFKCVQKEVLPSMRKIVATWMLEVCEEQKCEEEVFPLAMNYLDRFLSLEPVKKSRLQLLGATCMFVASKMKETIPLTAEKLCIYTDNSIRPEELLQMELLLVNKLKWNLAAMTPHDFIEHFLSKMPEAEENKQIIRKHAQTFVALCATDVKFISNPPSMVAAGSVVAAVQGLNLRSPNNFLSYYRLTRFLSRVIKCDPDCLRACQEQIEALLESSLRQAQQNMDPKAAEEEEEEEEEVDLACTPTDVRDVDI
In short: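 Insect-cell-expressed CDK4/Cyclin D1 (1 nM) phosphorylated ULight-4E-BP1 peptide (100 nM) at 2 mM ATP in HEPES pH 7.4 buffer after 20 min compound preincubation. Reaction started with 10 mM MgCl2, ran 45 min at 37 °C, then EDTA quench and Eu-anti-phospho-4E-BP1 TR-FRET detection. IC50 from 9-point 3-fold dilutions, 4-parameter fit.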

OVCAR3 p-RB = test: pRB ICW assay in OVCAR3 cells; type: cell-based; settings: Homo sapiens, OVCAR-3, incubated with compound for 2 hours
In short: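 OVCAR3 cells were treated 2 h at 37 °C with a 9-point half-log compound series, in duplicate, with 10 μM reference compound as maximum inhibition. Cells were then fixed, permeabilized and stained with anti-phospho-RB plus DRAQ5. In-cell western intensities were read at 700/800 nm on Odyssey CLx.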

SMILES	IC50 (CDK2/Cyclin E2) [nM]	IC50 (CDK4/Cyclin D1) [nM]	IC50 (OVCAR3 p-RB) [nM]
CC(O)c1ncc(-c2nc(N[C@H]3CCN(S(=O)(=O)c4c[nH]cn4)C[C@H]3C)ncc2C(F)(F)F)s1 (stereo partly drawn) [Example 104, 1-(5-(2-(((3R,4S)-1-((1H-imidazol-4-yl)sulfonyl)-3-methylpiperidin-4-yl)amino)-5-(trifluoromethyl)pyrimidin-4-yl)thiazol-2-yl)ethan-1-ol]	≤ 100	100 to 1000	100 to 1000
Cn1cnc(S(=O)(=O)N2CCC(Nc3ncc(C(F)(F)F)c(-c4cnc(C(O)C(F)F)s4)n3)CC2)c1 (stereo not drawn) [Example 91, 2,2-difluoro-1-(5-(2-((1-((1-methyl-1H-imidazol-4-yl)sulfonyl)piperidin-4-yl)amino)-5-(trifluoromethyl)pyrimidin-4-yl)thiazol-2-yl)ethan-1-ol]	≤ 100	≤ 100	≤ 100
CS(=O)(=O)N1CCC(Nc2ncc(C(F)(F)F)c(-c3cnc(OC4CCCC4)s3)n2)CC1 [Example 27, 4-(2-(cyclopentyloxy)thiazol-5-yl)-N-(1-(methylsulfonyl)piperidin-4-yl)-5-(trifluoromethyl)pyrimidin-2-amine]	≤ 100	≤ 100	> 1000
Cc1ncc(-c2nc(N[C@@H]3CCN(S(=O)(=O)c4cnn(C)c4)C[C@H]3F)ncc2C(F)(F)F)s1 [Example 93, N-((3R,4R)-3-fluoro-1-((1-methyl-1H-pyrazol-4-yl)sulfonyl)piperidin-4-yl)-4-(2-methylthiazol-5-yl)-5-(trifluoromethyl)pyrimidin-2-amine]	≤ 100	≤ 100	100 to 1000
CC(C)(O)Cc1ncc(-c2nc(NC3CCN(S(=O)(=O)c4cnc5cccnn45)CC3)ncc2C(F)(F)F)s1 [Example 76, 1-(5-(2-((1-(imidazo[1,2-b]pyridazin-3-ylsulfonyl)piperidin-4-yl)amino)-5-(trifluoromethyl)pyrimidin-4-yl)thiazol-2-yl)-2-methylpropan-2-ol]	≤ 100	100 to 1000	≤ 100
CC(O)c1ncc(-c2nc(NC3CCN(S(=O)(=O)c4cnn(C)c4)CC3)ncc2C(F)(F)F)s1 (stereo not drawn) [Example 82, 1-(5-(2-((1-((1-methyl-1H-pyrazol-4-yl)sulfonyl)piperidin-4-yl)amino)-5-(trifluoromethyl)pyrimidin-4-yl)thiazol-2-yl)ethan-1-ol]	≤ 100	≤ 100	≤ 100
CC(O)c1ncc(-c2nc(N[C@@H]3CCN(S(=O)(=O)c4cnn(C)c4)C[C@@H]3F)ncc2C(F)(F)F)s1 (stereo partly drawn) [Example 97, 1-(5-(2-(((3S,4R)-3-fluoro-1-((1-methyl-1H-pyrazol-4-yl)sulfonyl)piperidin-4-yl)amino)-5-(trifluoromethyl)pyrimidin-4-yl)thiazol-2-yl)ethan-1-ol]	100 to 1000	100 to 1000	> 1000
CN(C)c1ncc(-c2nc(NC3CCN(S(C)(=O)=O)CC3)ncc2C(F)F)s1 [Example 62, 5-[5-(Difluoromethyl)-2-[(1-methylsulfonylpiperidin-4-yl)amino]pyrimidin-4-yl]-N,N-dimethyl-1,3-thiazol-2-amine]	100 to 1000	100 to 1000	> 1000
CC(O)c1ncc(-c2nc(NC3CCN(S(=O)(=O)c4cn(C)cn4)CC3)ncc2C(F)(F)F)s1 (stereo not drawn) [Example 83, 1-(5-(2-((1-((1-methyl-1H-imidazol-4-yl)sulfonyl)piperidin-4-yl)amino)-5-(trifluoromethyl)pyrimidin-4-yl)thiazol-2-yl)ethan-1-ol]	≤ 100	≤ 100	≤ 100
CC(O)c1ncc(-c2nc(NC3CCN(S(=O)(=O)c4ccsc4)CC3)ncc2C(F)(F)F)s1 (stereo not drawn) [Example 85, 1-(5-(2-((1-(thiophen-3-ylsulfonyl)piperidin-4-yl)amino)-5-(trifluoromethyl)pyrimidin-4-yl)thiazol-2-yl)ethan-1-ol]	≤ 100	≤ 100	≤ 100
Cn1cc(S(=O)(=O)N2CCC(Nc3ncc(C(F)(F)F)c(-c4cnc(C(O)C5CC5)s4)n3)CC2)cn1 (stereo not drawn) [Example 84, cyclopropyl(5-(2-((1-((1-methyl-1H-pyrazol-4-yl)sulfonyl)piperidin-4-yl)amino)-5-(trifluoromethyl)pyrimidin-4-yl)thiazol-2-yl)methanol]	≤ 100	≤ 100	≤ 100
CC(=O)N1CCC(S(=O)(=O)N2CCC(Nc3ncc(C(F)(F)F)c(-c4cnc(C(C)O)s4)n3)CC2)CC1 (stereo not drawn) [Example 88, 1-(4-((4-((4-(2-(1-hydroxyethyl)thiazol-5-yl)-5-(trifluoromethyl)pyrimidin-2-yl)amino)piperidin-1-yl)sulfonyl)piperidin-1-yl)ethan-1-one]	≤ 100	≤ 100	100 to 1000

Further lines, results first:

IC50 (CDK2/Cyclin E2) [nM]	IC50 (CDK4/Cyclin D1) [nM]	IC50 (OVCAR3 p-RB) [nM]	SMILES
≤ 100	≤ 100	100 to 1000	Cc1cc(CO)ccc1-c1ncc(-c2nc(NC3CCN(S(C)(=O)=O)CC3)ncc2C(F)(F)F)s1 [Example 12, [3-methyl-4-[5-[2-[(1-methylsulfonylpiperidin-4-yl)amino]-5-(trifluoromethyl)pyrimidin-4-yl]-1,3-thiazol-2-yl]phenyl]methanol]
≤ 100	100 to 1000	100 to 1000	CC(=O)Nc1ncc(-c2nc(NC3CCN(S(C)(=O)=O)CC3)ncc2C(F)(F)F)s1 [Example 21, N-(5-(2-((1-(methylsulfonyl)piperidin-4-yl)amino)-5-(trifluoromethyl)pyrimidin-4-yl)thiazol-2-yl)acetamide]
≤ 100	≤ 100	> 1000	Cc1nc(CO)ccc1-c1ncc(-c2nc(NC3CCN(S(C)(=O)=O)CC3)ncc2C(F)(F)F)s1 [Example 10, [6-Methyl-5-[5-[2-[(1-methylsulfonylpiperidin-4-yl)amino]-5-(trifluoromethyl)pyrimidin-4-yl]-1,3-thiazol-2-yl]pyridin-2-yl]methanol]
≤ 100	100 to 1000	100 to 1000	Cc1ncc(-c2nc(NC3CCN(S(=O)(=O)C4CC4)CC3)ncc2C(F)(F)F)s1 [Example 46, N-(1-(Cyclopropylsulfonyl)piperidin-4-yl)-4-(2-methylthiazol-5-yl)-5-(trifluoromethyl)pyrimidin-2-amine]
≤ 100	≤ 100	100 to 1000	Cc1ncc(-c2nc(NC3CCN(S(=O)(=O)c4cn(C)cn4)CC3)ncc2C(F)(F)F)s1 [Example 58, N-[1-(1-Methylimidazol-4-yl)sulfonylpiperidin-4-yl]-4-(2-methyl-1,3-thiazol-5-yl)-5-(trifluoromethyl)pyrimidin-2-amine]
≤ 100	≤ 100	100 to 1000	Cc1cc(C(C)O)ccc1-c1ncc(-c2nc(NC3CCN(S(C)(=O)=O)CC3)ncc2C(F)(F)F)s1 (stereo not drawn) [Example 7, 1-[3-Methyl-4-[5-[2-[(1-methylsulfonylpiperidin-4-yl)amino]-5-(trifluoromethyl)pyrimidin-4-yl]-1,3-thiazol-2-yl]phenyl]ethanol]
≤ 100	≤ 100	100 to 1000	CS(=O)(=O)N1CCC(Nc2ncc(C(F)(F)F)c(-c3cnc(N)s3)n2)CC1 [Example 20, 5-(2-((1-(methylsulfonyl)piperidin-4-yl)amino)-5-(trifluoromethyl)pyrimidin-4-yl)thiazol-2-amine]
≤ 100	100 to 1000	> 1000	Cc1cc(C(C)(C)O)ccc1-c1ncc(-c2nc(NC3CCN(S(C)(=O)=O)CC3)ncc2C(F)(F)F)s1 [Example 8, 2-[3-Methyl-4-[5-[2-[(1-methylsulfonylpiperidin-4-yl)amino]-5-(trifluoromethyl)pyrimidin-4-yl]-1,3-thiazol-2-yl]phenyl]propan-2-ol]
≤ 100	≤ 100	100 to 1000	Cc1ncc(-c2nc(NC3CCN(S(=O)(=O)c4cnn(C)c4)CC3)ncc2C(F)(F)F)s1 [Example 60, N-[1-(1-Methylpyrazol-4-yl)sulfonylpiperidin-4-yl]-4-(2-methyl-1,3-thiazol-5-yl)-5-(trifluoromethyl)pyrimidin-2-amine]
≤ 100	≤ 100	100 to 1000	CS(=O)(=O)N1CCC(Nc2ncc(C(F)(F)F)c(-c3cnc(NCCF)s3)n2)CC1 [Example 40, N-(2-Fluoroethyl)-5-[2-[(1-methylsulfonylpiperidin-4-yl)amino]-5-(trifluoromethyl)pyrimidin-4-yl]-1,3-thiazol-2-amine]
≤ 100	≤ 100	100 to 1000	CCOc1ncc(-c2nc(NC3CCN(S(C)(=O)=O)CC3)ncc2C(F)(F)F)s1 [Example 52, 4-(2-Ethoxy-1,3-thiazol-5-yl)-N-(1-methylsulfonylpiperidin-4-yl)-5-(trifluoromethyl)pyrimidin-2-amine]
≤ 100	≤ 100	100 to 1000	CS(=O)(=O)N1CCC(Nc2ncc(C(F)(F)F)c(-c3cnc(NCCO)s3)n2)CC1 [Example 31, 2-[[5-[2-[(1-methylsulfonylpiperidin-4-yl)amino]-5-(trifluoromethyl)pyrimidin-4-yl]-1,3-thiazol-2-yl]amino]ethanol]
